# pIC50: −log10 of the molar value.
# Tests used:
# [1] = test system: metastatic colorectal cancer (mCRC) patients with T2DM; test: Retrospective study of OS and PFS of first-line chemotherapy in mCRC patients with T2DM (Kaplan-Meier, stratified Cox proportional hazard model), SYSUCC 2004-2016; type: in vivo, human
# Source text: General clinical characteristics of the patients, such as, sex, age and body mass index (BMI) and the clinical characteristics affecting mCRC prognosis in the existing research reports (such as, primary tumor site, pathological grading, metastatic site, first-line chemotherapy regimen and KRAS genotype) were collected to exclude confounding factors, thus making the influences of metformin on the overall survival (OS) of the mCRC patients with T2DM and the progression free survival (PFS) of the first-line chemotherapy clear.
# GraphPad Prism 7 was used to draw a Kaplan-Meier curve, and Log-rank (Mantel-Cox) statistical analysis was performed; stratified HR was additionally used to make a statistics on the influences on OS and PFS between different hypoglycemic agents use and the without anti-diabetic treatments.
# A stratified Cox proportional hazard model was used for stratification on the above collected clinical characteristics to explore the individual factors influencing the efficacy of metformin.
# After through the proportional hazard assumption, it is further assumed that sex, age, BMI, primary tumor site, pathological grading, metastatic site, and KRAS genotype may serve as confounding factors to make an impact on the anti-tumor effect of metformin. Therefore, hierarchical regression analysis was performed on the above clinical characteristics, thus determining the individual difference interacting with metformin.
# [2] = test system: KRAS G13D, G12D and G12V mutation colorectal cancer cells; test: Cell viability, metformin with a gradient concentration; type: cell-based, human; settings: FIG. 6
# [3] = test system: KRAS mutation CRC cells LoVo; test: Cell viability (CCK-8 method); type: cell-based, human
# Description: (§1) The cells were inoculated on a plate according to the concentration of 5000 cells/well (48-well plate, 200 μl per well). The cells were treated with different ways according to the experimental requirements, and 10 μl CCK8 solution was added after a period of time. The cells were incubated for 1 h in an incubator; 200 μl supernatant were absorbed into a 96-well ELISA plate to determine OD450 with a microplate reader.
# (§2) (2) Metformin with a gradient concentration was used in vitro to treat KRAS wildtype colorectal cancer cell lines SW48 and CaCO2, KRAS G13D-mutation colorectal cancer cell lines HCT-116 and LoVo, as well as KRAS G12V-mutation colorectal cancer cell lines SW480 and SW620. In addition, the metformin with a gradient concentration was used to treat the KRAS wildtype colorectal cancer cell line SW48 transfected with KRAS G12V, KRAS G13D and KRAS G12D plasmids.
# (§3) 5 μM and 10 μM lansoprazole were used to treat HCT-116 and LoVo simultaneously; metformin was used to treat the cells at the same time for 48 h; the cell viability was detected by CCK8.
# [4] = test system: KRAS mutation CRC cells HCT-116; test: Cell viability (CCK-8 method); type: cell-based, human
# Description: as §1, §2, §3
# [5] = test system: KRAS wildtype colorectal cancer cells; test: Cell viability, metformin with a gradient concentration; type: cell-based, human; settings: FIG. 6
# Description: as §1, §2
# [6] = test system: ERK and AKT signaling pathways of KRAS mutation CRC cells in PDX tumor tissues; test: Western blot of PDX tumor tissues; type: in vivo, BALB/c nude mice; settings: FIG. 9F
# Source text: (2) Tumor tissues from PDX animals were taken and homogenated to extract protein for WB.
# [7] = test system: KRAS wildtype CRC cells CaCO2; test: Cell viability (CCK-8 method); type: cell-based; settings: Homo sapiens, Caco-2; CCK8, FIG. 10
# Description: as §1, §2, §3
# [8] = test system: KRAS wildtype CRC cells SW48; test: Cell viability (CCK-8 method); type: cell-based; settings: Homo sapiens, CCK8, FIG. 10
# Description: as §1, §2, §3
# [9] = test system: KRAS mutation CRC cells LoVo; test: Proliferation detection (Edu method); type: cell-based, human; settings: FIGS. 8A-B
# Description: (§4) Edu was used to detect the ratio of proliferative cells, a plate clone formation experiment and PI/Rnase simple staining were used to detect the distribution of cell cycles, thus making the effect of metformin on the proliferation of CRC cells clear.
# (§5) 1) Cell treatment by Edu: cells were cultured in a culture dish (covered with a sterilized cover glass), and subjected adherence growth for 12 h, and starvation treatment over the night, and treated with the addition of an agent for the corresponding time, and then added with EdU (final concentration: 10 μM) at the last 2-6 h (EdU treatment time was determined according to the cell growth rate).
# (§6) 2) Immobilization: 4% paraformaldehyde was added according to 1 mL/well to immobilize the cells for 15 min at room temperature.
# (§7) 3) Slide washing: 3% BSA (dissolved by PBS) was used according to 1 mL/well for washing for twice.
# (§8) 4) Rupture of membrane: the cells were treated by 0.5% TritonX-100 according to 1 mL/well for 20 min at room temperature.
# (§9) 5) Slide washing: the same as the step 3).
# (§10) 6) Addition of a ClickiT reaction mixture: the reaction mixture was added per […] in the dark for 30 min at room temperature. […]
# (§11) 11) The slide was observed under a full-automatic positive fluorescence microscope to analyze the result, and shoot and recorded (100×, 200×, 400×, the original image was kept).
# [10] = test system: KRAS wildtype CRC cells SW48; test: Proliferation detection (Edu method); type: cell-based, human; settings: FIGS. 8A-B
# Description: as §4, §5, §6, §7, §8, §9, §10, §11
# [11] = metformin use vs non-metformin use, Age at diagnosis <60 years
# [12] = metformin use vs non-metformin use, Age at diagnosis ≥60 years
# [13] = metformin use vs non-metformin use, BMI Normal (18.5~23.0)
# [14] = metformin use vs non-metformin use, BMI Pre- & obese (>23.0)
# [15] = metformin use vs non-metformin use, KRAS genotype Wildtype
# [16] = metformin use vs non-metformin use, Metastatic site Liver
# [17] = metformin use vs non-metformin use, Metastatic site Multiple sites
# [18] = metformin use vs non-metformin use, Moderately differentiated
# [19] = metformin use vs non-metformin use, Poorly & un-differentiated
# [20] = metformin use vs non-metformin use, Primary site Left colon
# [21] = metformin use vs non-metformin use, Primary site Rectum
# [22] = metformin use vs non-metformin use, Primary site Right colon
# [23] = metformin use vs non-metformin use, Sex: Female
# [24] = metformin use vs non-metformin use, Sex: Male
# [25] = vs nonusers of hypoglycemic agents, stratified by age at diagnosis, adjusted for sex, BMI, primary site, metastatic site, pathological grading, KRAS genotype
# [26] = with 5 μM and 10 μM lansoprazole, 48 h, FIGS. 11A-B
compound,measurement,setting,value
CN(C)C(=N)N=C(N)N [metformin],"overall survival, Kaplan-Meier curve","[1]; KRAS mutation mCRC patients, P<0.001, FIGS. 3A-B",significantly extends
same,"progression free survival of first-line chemotherapy, Kaplan-Meier curve","[1]; KRAS mutation mCRC patients, P<0.01, FIGS. 3A-B",significantly extends
same,"efficacy on OS and PFS, Kaplan-Meier curve","[1]; KRAS wildtype mCRC patients, FIGS. 3C-D",has no efficacy
same,extension of median survival,"[1]; Kaplan-Meier, mCRC patients with T2DM, P=0.022, FIG. 2",11.3 months
same,OS HR (95% CI),[1]; [11],0.869
same,PFS HR (95% CI),[1]; [11],1.074
same,OS HR (95% CI),[1]; [12],0.596
same,PFS HR (95% CI),[1]; [12],0.562
same,OS HR (95% CI),[1]; [13],0.582
same,PFS HR (95% CI),[1]; [13],0.884
same,OS HR (95% CI),[1]; [14],0.702
same,PFS HR (95% CI),[1]; [14],0.555
same,OS HR (95% CI),[1]; [15],1.487
same,PFS HR (95% CI),[1]; [15],1.194
same,OS HR (95% CI),[1]; [16],1.151
same,PFS HR (95% CI),[1]; [16],0.949
same,OS HR (95% CI),[1]; [17],1.008
same,PFS HR (95% CI),[1]; [17],0.818
same,OS HR (95% CI),[1]; [18],0.676
same,PFS HR (95% CI),[1]; [18],0.644
same,OS HR (95% CI),[1]; [19],0.629
same,PFS HR (95% CI),[1]; [19],0.811
same,OS HR (95% CI),[1]; [20],0.982
same,PFS HR (95% CI),[1]; [20],0.823
same,OS HR (95% CI),[1]; [21],0.475
same,PFS HR (95% CI),[1]; [21],0.544
same,OS HR (95% CI),[1]; [22],0.729
same,PFS HR (95% CI),[1]; [22],0.622
same,OS HR (95% CI),[1]; [23],0.944
same,PFS HR (95% CI),[1]; [23],0.697
same,OS HR (95% CI),[1]; [24],0.673
same,PFS HR (95% CI),[1]; [24],0.732
same,OS HR (95% CI),[1]; [25],0.356
same,PFS HR (95% CI),[1]; [25],0.630
same,effect on cell viability,[2],has an inhibiting effect
same,pIC50,"[3]; Homo sapiens, LoVo, CCK8, FIG. 10",2.09
same,increase of IC50 of metformin after lansoprazole,[3]; [26],1.2-2.5 times
same,pIC50,"[4]; Homo sapiens, HCT-116, CCK8, FIG. 10",1.63
same,increase of IC50 of metformin after lansoprazole,[4]; [26],1.2-2.5 times
same,effect on cell viability,[5],has no effect
same,ERK and AKT signaling pathways in PDX tumor tissues,[6],inhibits
same,pIC50,[7],1.05
same,pIC50,[8],1.04
same,ratio of proliferating-phase cells (EdU positive),[9],decreases
same,ratio of proliferating-phase cells (EdU positive),[10],no obvious effect
